These results are taken from patent publication US6429212B1, “Medicinal composition” (Ishihara Sangyo Kaisha Ltd., priority 1996, dated 2002).

In general, melting point refers to the temperature of the solid-liquid transition.

The structures appear in SMILES notation.

The test system of series [1] is TNF-α production or secretion by human leukemia cells HL-60 (Okadaic acid stimulation). Kind of series: Influence on TNF-α production or secretion by HL-60 cells stimulated by Okadaic acid (ELISA of supernatant). To be noted: for amount of TNF-α in the supernatant, Okadaic acid alone = 100%: HL-60, Okadaic acid 50 nM, 16 hours (Table 8); for amount of TNF-α, Okadaic acid alone = 100%: HL-60, Okadaic acid stimulation (Table 10). The class given is cell-based. The protocol:
(§1) Human leukemia cells HL-60 produce tumor necrosis factor (TNF-α) by stimulation of Okadaic acid (9,10-Deepithio-9,10-didehydroacanthifolicin) or 12O-tetradecanoyl phorbol-13-acetate (TPA). Influences of the compounds of the present invention to production or secretion of TNF-α by them were observed.
Human leukemia cells (HL-60) were cultured by using a RPMI 1640 culture medium (including 5% fetal bovine serum), in a carbonic acid gas incubator (5% CO2, humidified, 37° C.). Then, the cells were pre-cultured in a RPMI 1640 culture medium (including 10% fetal bovine serum). Okadaic acid was added thereto, so that the final concentration was 50 nM based on the HL-60 cells (5×10^5 cells/ml) in an exponentially growing stage. Then, the compound of the present invention was added thereto so that the predetermined concentration could be obtained, to prepare a cell suspension, which was then cultured in a carbonic acid gas incubator (5% CO2, humidified, 37° C.). In this culture, a multiplate having 24 holes (produced by Corning) was used, and the cell suspension was injected in an amount of 0.5 ml per hole, to culture the cells.
16 hours after the culture started, the cells were removed by centrifugation (1000-2000 rpm×10 min), and the amount of TNF-α in the supernatant was measured in accordance with the method of Amersham, by using human TNF-α ELISA system (produced by Amersham).
The values in the Table are values obtained by supposing the amount of TNF-αin the supernatant of the culture medium when treated only with Okadaic acid having a final concentration of 50 nM, 100%.
Influences of the compounds of the present invention to production or secretion of TNF-α by Okadaic acid stimulation were observed, in the same manner as in Test Example 1.

The subject of series [2] is TNF-α production or secretion by human leukemia cells HL-60 (TPA stimulation). Kind of series: Influence on TNF-α production or secretion by HL-60 cells stimulated by TPA (ELISA of supernatant). The class given is cell-based. The settings on record: for amount of TNF-α in the supernatant, TPA alone = 100%: HL-60, TPA 10 nM, 16 hours (Table 9); for amount of TNF-α, TPA alone = 100%: HL-60, TPA stimulation (Table 11). The protocol: as §1
The same operation was carried out as in Test Example 1, except that TPA (produced by Sigma) having a final concentration of 10 nM was used, instead of Okadaic acid having a final concentration of 50 nM.
The values in the Table are values obtained by supposing the amount of TNF-α in the supernatant of the culture medium when treated only with TPA having a final concentration of 10 nM, 100%.
Human leukemia cells (HL-60) produce tumor necrosis factor (TNF-α) by stimulation of 12O-tetradecanoyl phorbol-13-acetate (TPA). The influences of the compounds of the present invention to production of TNF-αby it were observed.
Human leukemia cells (HL-60) were cultured by using a RPMI 1640 culture medium (including 5% fetal bovine serum), in a carbonic acid gas incubator (5% CO2, humidified, 37° C.). Then, the cells were pre-cultured in a RPMI 1640 culture medium (including 10% fetal bovine serum). TPA was added thereto, so that the final concentration was 10 nM based on the HL-60 cells (5×10^5 cells/ml) in an exponentially growing stage. Then, the compound of the present invention was added thereto so that the predetermined concentration could be obtained, to prepare a cell suspension, which was then cultured in a carbonic gas incubator (5% CO2, humidified, 37° C.). In this culture, a multiplate having 24 holes (produced by Corning) was used, and the cell suspension was injected in an amount of 0.5 ml per hole, to culture the cells.
16 hours after the culture started, the cells were removed by centrifugation(1000-2000 rpm×10 min), and the amount of TNF-α in the supernatant was measured in accordance with the method of Amersham, by using human TNF-α ELISA system (produced by Amersham).
The values are obtained by supposing the amount of TNF-α when treated only with TPA having a final concentration of 10 nM, 100%.
The influences of the compounds of the present invention to production or secretion of TNF-α by TPA stimulation were observed, in the same manner as in Test Example 2.

In series [3] the test system is angiogenesis under skin of mice. Kind of series: Angiogenesis under skin of mice (b-FGF matrigel, amount of hemoglobin). The class given is in vivo, BALB/c male mice. The arrangement: key to Amount of hemoglobin, value in parentheses (Control = 100): % of control (control = 100), hemoglobin per matrigel. To be noted: for Amount of hemoglobin, value in parentheses (Control = 100): experiment (b) (Table 15). The protocol: By subcutaneously injecting a mixture having recombinant human fibroblast growth factor-basic added to matrigel, to the back of a mice, angiogenesis occurs under skin of the mice. By measuring the amount of hemoglobin in matrigel, angiogenesis can be quantified. Influences of the compounds of the present invention to angiogenesis were observed.
Matrigel (trademark; basement membrane matrix, phenol is not included, purchased from Becton Dickinson Labware) was added to Dulbecco's modified Eagle's medium (purchased from Sigma), so that the concentration was 9 mg/ml. Recombinant Human Fibroblast Growth Factor-basic (b-FGF, produced by Intergen) was added thereto, so that the concentration was 2 μg/700 μl. The mixture was subcutaneously injected to 6-week BALB/c male mice (Charles River Japan Inc.) in an amount of 700 μl per mouse. Everyday after matrigel injection, a suspension having the compound of the present invention added to 0.8% Tween 80 (purchased from Nacalai Tesque), so that the predetermined concentration could be obtained, was intraperitoneally injected to the mice. 8 days after matrigel injection, matrigel was taken out from the mice, which was then placed in 200 μl of 1% NH4OH at room temperature for 4 hours, to extract hemoglobin. The extraction and matrigel together were subjected to centrifugal separation (10000 rpm, 5 min). 100 μl of the obtained supernatant and 500 μl of Drabkin's reagent (purchased from Sigma) were mixed and left at room temperature. After left more than 15 minutes, absorbance of the supernatant at a wavelength of 540 nm was measured by using a spectrophotometer SPECTRA max 250 (produced by Molecular Devices). The amount of hemoglobin in the supernatant was obtained from the standard curve prepared by using hemoglobin standard (purchased from Sigma), and the amount of hemoglobin per matrigel obtained from a mouse was calculated.
The amount of the hemoglobin in each treatment fraction was corrected by the amount of hemoglobin wherein matrigel having no b-FGF added was injected to the mice, and 0.8% Tween 80 as a solvent alone was injected everyday.
Influences of the compounds of the present invention to angiogenesis under skin of mice were observed, in the same manner as in Test Example 8.

[4] abbreviates: 5 mg/kg, experiment (b), Control 83.3 (Table 15).

`C[C@H](c1cccc2ccccc12)N1C(=O)c2c(F)c(F)c(F)c(F)c2C1=O` [Compound 50, (R)-2-(1-naphthylethyl)-4,5,6,7-tetrafluoro-1H-isoindole-1,3-dione]: the “amount of TNF-α in the supernatant, Okadaic acid alone = 100%” value in series [1] (compound 1 nM) is given as 100%; in series [1] (compound 10 nM), 88%; in series [1] (compound 100 nM), 43%; in series [1] (compound 0.3 μM), 2%. Also, the “amount of TNF-α in the supernatant, TPA alone = 100%” value in series [2] (compound 10 nM), in series [2] (compound 100 nM) and in series [2] (compound 0.3 μM) was 100% throughout. The “Amount of hemoglobin, value in parentheses (Control = 100)” value in series [3] (5 mg/kg) is on record as 79. Also, the Amount of hemoglobin in series [3] (setting [4]) turned out to be 65.4 μg/gel.
Take `C[C@H](C1CCCCC1)N1C(=O)c2c(F)c(F)c(F)c(F)c2C1=O` [Compound 69, (R)-2-(1-cyclohexylethyl)-4,5,6,7-tetrafluoro-1H-isoindole-1,3-dione]: the “amount of TNF-α in the supernatant, Okadaic acid alone = 100%” value was found to be 101% in series [1] (compound 1 nM), 95% in series [1] (compound 10 nM), 59% in series [1] (compound 100 nM) and 10% in series [1] (compound 0.3 μM). The “amount of TNF-α in the supernatant, TPA alone = 100%” value is 100% in series [2] (compound 10 nM), 102% in series [2] (compound 100 nM) and 98% in series [2] (compound 0.3 μM). Besides, the “Amount of hemoglobin, value in parentheses (Control = 100)” value amounted to 93 in series [3] (1 mg/kg) and 49 in series [3] (5 mg/kg). Also, the Amount of hemoglobin in series [3] (1 mg/kg, experiment (b), Control 83.3 (Table 15)) was found to be 77.2 μg/gel; in series [3] (setting [4]), 41.1 μg/gel.
Consider `C[C@@H](c1ccccc1)N1C(=O)c2cccc([N+](=O)[O-])c2C1=O` [Compound 83, (S)-2-(1-phenylethyl)-4-nitro-1H-isoindole-1,3-dione], for which the melting point was 115 to 117 °C. For the same molecule, the “amount of TNF-α in the supernatant, Okadaic acid alone = 100%” value in series [1] (compound 1 nM) is 100%. Moreover, the “amount of TNF-α in the supernatant, Okadaic acid alone = 100%” value in series [1] (compound 10 nM) is listed as 99%. Besides, the “amount of TNF-α in the supernatant, Okadaic acid alone = 100%” value in series [1] (compound 100 nM) is recorded as 85%. Also, the “amount of TNF-α in the supernatant, Okadaic acid alone = 100%” value in series [1] (compound 0.3 μM) was found to be 61%. For the same molecule, the “amount of TNF-α in the supernatant, TPA alone = 100%” value in series [2] (compound 10 nM) worked out at 122%. Also, the “amount of TNF-α in the supernatant, TPA alone = 100%” value in series [2] (compound 100 nM) turned out to be 187%. In series [2] (compound 0.3 μM), the “amount of TNF-α in the supernatant, TPA alone = 100%” value is on record as 239%.
The molecule `C[C@H](c1ccccc1)N1C(=O)c2cccc([N+](=O)[O-])c2C1=O` [Compound 84, (R)-2-(1-phenylethyl)-4-nitro-1H-isoindole-1,3-dione] showed a melting point of 115 to 117 °C. Besides, the “amount of TNF-α in the supernatant, Okadaic acid alone = 100%” value in series [1] (compound 1 nM) was determined as 99%. The “amount of TNF-α in the supernatant, Okadaic acid alone = 100%” value in series [1] (compound 10 nM) is listed as 104%. Also, in series [1] (compound 100 nM), the “amount of TNF-α in the supernatant, Okadaic acid alone = 100%” value amounted to 88%. Also, in series [1] (compound 0.3 μM), the “amount of TNF-α in the supernatant, Okadaic acid alone = 100%” value is 52%. For the same molecule, the “amount of TNF-α in the supernatant, TPA alone = 100%” value in series [2] (compound 10 nM) was 100%. For the same molecule, the “amount of TNF-α in the supernatant, TPA alone = 100%” value in series [2] (compound 100 nM) is 121%. The “amount of TNF-α in the supernatant, TPA alone = 100%” value in series [2] (compound 0.3 μM) came to 195%.
As for `CC(C)c1cccc(C(C)C)c1N1Cc2ccccc2C1` [Compound 144, N-(2,6-diisopropylphenyl)isoindoline], the melting point lay within 130.9 to 132 °C. The “amount of TNF-α, TPA alone = 100%” value in series [2] (compound 100 μM) came out at 319%.
Consider `Cc1ccc2c(c1)C(=O)N(c1c(C(C)C)cccc1C(C)C)C2=O` [Compound 171], for which the melting point lay within 162.9 to 163.2 °C. The “amount of TNF-α, TPA alone = 100%” value in series [2] (compound 10 μM) was found to be 421%.
For `CC(C)c1cccc(C(C)C)c1N1C(=O)c2ccc(C(C)(C)C)cc2C1=O` [Compound 173, N-(2,6-diisopropylphenyl)-5-tert-butyl phthalimide], in that order: 234 to 234.8 °C and 251%.
Turning to `CC(C)c1cccc(C(C)C)c1N1C(=O)c2ccccc2C1=S` [Compound 174, N-(2,6-diisopropylphenyl)thiophthalimide], the “amount of TNF-α, Okadaic acid alone = 100%” value in series [1] (compound 1 μM) is 96%; in series [1] (compound 10 μM) it was 15%; in series [1] (compound 100 μM) it was 0%. The “amount of TNF-α, TPA alone = 100%” value in series [2] (compound 1 μM) worked out at 332%; in series [2] (compound 10 μM), 682%; in series [2] (compound 100 μM), 1326%. Moreover, in series [3] (100 mg/kg intraperitoneally everyday, 8 days after matrigel injection (Table 12)), the “Amount of hemoglobin, value in parentheses (dose 0 = 100)” value turned out to be 54. Besides, the Amount of hemoglobin in series [3] (100 mg/kg intraperitoneally everyday, 8 days after matrigel injection, dose 0 = 307.3 (Table 12)) is 164.8 μg/gel.
`CCCCCCOc1ccc2c(c1)C(=O)N(c1c(C(C)C)cccc1C(C)C)C2=O` [Compound 193] displayed a melting point of 117 to 118 °C.
Molecule `CSc1ccccc1N1C(=O)c2ccc(C)cc2C1=O` [Compound 195] came in with a melting point of 175 to 177 °C.
